Results reported in PMC7728372, “Synthesis and Biological Evaluation of Amino Chalcone Derivatives as Antiproliferative Agents” (Molecules, 2020).
Where two headings read alike, the source gives them in different places. Values belong to the compound of their own block, whether it stands above or below them.

Columns and labels:
K562 cell line = system: K562 cell line; set-up: method as in PMID 19837593; details: cited from earlier work
[1] = system: CyclinB1 and CDK1 in MGC-803 cells; test: Western blotting of cell proliferation related proteins; format: cell-based, human; details: MGC-803, western blot, 24 h
Description: (§1) Gastric cancer cells were seeded in dishes and treated with 13e or DMSO. After 48 h, MGC-803 cells were collected and then lysed. The denatured lysates of each groups were electrophoretic separated in SDS-PAGE. Proteins were then transferred onto PVDF membranes from gels. After blocking for 2 h, membranes were incubated with primary antibodies conjugation. Then, the membranes were washed and incubated with 2nd antibodies. At last, specific proteins were detected.
(§2) Figure 5 Compound 13e inhibited cell proliferation. (A,B) The colony formation of MGC-803 cells after the treatment with indicated concentrations of compound 13e for 7 days; (C) Cell proliferation related proteins in MGC-803 cells of compound 13e after the treatment with indicated concentrations of 13e for 24 h.

MGC-803 cells [2] = test: Cell colony formation assay; format: cell-based, human
Description: To check the effect of compound 13e on cell proliferation, cell colony formatting assay was performed. […] Beside the activity on cell apoptosis, compound 13e inhibited cell proliferation of MGC-803 cells as well.
(§3) In this work, some other assays including colony formation assay and cell apoptosis assay were referred to our previous work.
as §2

MGC-803 cells [3] = test: DAPI fluorescent staining of cell nucleus; format: cell-based, human; details: MGC-803, high dose treated group, 48 h
Description: Cells were seeded in 6-welled plate, then treated with different concentration of compounds for 48 h. The treated and untreated cells were washed with PBS buffer. Then fixed with 4% paraformaldehyde for 10 min in dark. After washed with PBS buffer, cells were stained by 2 μg/mL DAPI solution containing 0.1% triton X-100 for 30 min. Discard the solution and wash the cells with PBS buffer. Capture the images with a fluorescence microscope.
(§4) Figure 6 Compound 13e induced cell apoptosis. (A) Cell nucleus (upper panel) and morphology (lower panel) of compound 13e treated (48 h) or untreated MGC-803 cells; (B) Compound 13e induced apoptosis of MGC-803 cells. After incubated with compound 13e for 48 h, MGC-803 cells were detected by Annexin V/PI with flow cytometric analysis. The Q3 represents live cells, Q4 represents early/primary apoptotic cells, Q2 represents late/secondary apoptotic cells and Q1 represents cells necrosis. (C) The percentage of apoptosis (early and late apoptosis) cells increased dependently with various concentrations of compound 13e. Date are represented as mean ± SD of three independent experiments.

MGC-803 cells [4] = test: Growth curves of MGC-803 cells; format: cell-based, human; details: MGC-803, after treatment for 72 h
Description: Since gastric cancer cell line MGC-803 cells was more sensitive to compound 13e, MGC-803 cells were selected to do further study. The cell viabilities of MGC-803 cells after the treatment with different concentrations of compound 13e for 48 h were presented in Figure 4A, as the concentration rise, cell viability decreased obviously. […] The trends of cell growth were curved with results of cell viabilities after compound 13e treatment. […] We also tested the inhibition activity of compound 13e on normal gastric epithelial cell GES-1.
Figure 4 (A–C) MGC-803 cells inhibition activity of compound 13e […]. (A) Cell viabilities of MGC-803 cells, MGC-803 cells were treated with indicated concentrations of compound 13e for 48 h; (B) Growth curves of MGC-803 cells after the treatment with indicated concentrations of compound 13e for different hours. (C) Cell viabilities of MGC-803 cells and GES-1 cells, cells were treated with indicated concentrations of compound 13e for 48 h. The results shown were representative of three independent experiments.

[5] = system: apoptosis related proteins in MGC-803 cells; test: Western blotting of apoptosis related proteins; format: cell-based, human; details: MGC-803, 1.5-6 μmol/L, 48 h
Description: as §1
Figure 7 Compound 13e regulated apoptosis related proteins. (A,B) The expression of cell apoptosis related proteins were detected by western blotting. MGC-803 cells were incubated with various concentrations compound 13e (0 μmol/L, 1.5 μmol/L, 3 μmol/L, 6 μmol/L) for 48 h. Date are represented as mean ± SD of three independent experiments.

MCF-7 cells [6] = test: MTT antiproliferative assay, MCF-7 cells; format: cell-based, human
Description: (§5) Cell lines used were cultured in humidified incubator at 37 °C and 5% CO2. The RPMI-1640 medium was supplemented with 10% fetal bovine serum, penicillin (100 U/mL) and streptomycin (0.1 mg/mL).
(§6) Cell lines were seeded into […] and incubated for 24 h. Then cells were treated with different concentrations of compounds. And after another 48 h, MTT reagent (20 μL per well) was added and then incubated at 37 °C for 4 h. Formazan was then dissolved with DMSO. Absorbencies of formazan solution were measured at […]. The IC50 values of tested compounds were calculated by SPSS version 17.0.

MGC-803 cells [7] = test: Annexin V/PI flow cytometry apoptosis assay; format: cell-based, human; details: MGC-803, 6 μmol/L, 48 h; control less than 10%
Description: as §3, §4

HCT-116 cells = test: MTT antiproliferative assay, HCT-116 cells; format: cell-based, human
Description: as §5, §6

GES-1 cells = test: MTT antiproliferative assay, non-cancer GES-1 cells; format: cell-based; details: for Fold Selectivity A: A = IC50 (GES-1)/IC50 (MGC-803); for IC50: Homo sapiens, GES1, non-cancer cell line, exposure for 48 h
Description: as §5, §6

MGC-803 cells [8] = test: MTT antiproliferative assay, MGC-803 cells; format: cell-based, human; details: exposure for 48 h
Description: as §5, §6

hCA IX = system: hCA IX; set-up: method as in PMID 29852328; details: cited from earlier work
MCF-7 cells [9] = details: cited from earlier work
MGC-803 cells [10] = system: MGC-803 cells; set-up: method as in PMID 27423479, PMID 30763884, PMID 27213317; details: earlier work of the group; cited from earlier work
SKVO3 cells = system: SKVO3 cells; set-up: method as in PMID 27213819; details: cited from earlier work
[11] = Homo sapiens, MCF7, exposure for 48 h
[12] = Homo sapiens, HCT-116, exposure for 48 h

Compound: COc1ccc(/C=C/C(=O)c2cc(OC)c(OC)c(OC)c2)cc1 [Compound 2, (E)-3-(4-methoxyphenyl)-1-(3,4,5-trimethoxyphenyl)prop-2-en-1-one]
IC50 (K562 cell line): 4.5 µM

Compound: O=C(/C=C/c1cn(S(=O)(=O)c2ccc(Cl)cc2Cl)c2ccccc12)c1ccncc1 [Compound 4]
IC50 (hCA IX): 0.13 µM
IC50 (MCF-7 cells [9]): 12.2 µM

Compound: COc1cc(/C=C/C(=O)c2ccc(OCCCn3cc(CSc4nccs4)nn3)cc2)cc(OC)c1OC [Compound 7]
IC50 (MGC-803 cells [10]): 4.26 µM

Compound: COc1ccc(N(C)c2cc(=O)oc3ccccc23)cc1NC(=O)CCCCl [Compound 9]
IC50 (SKVO3 cells): 0.0035 µM

Continued, in another order:

IC50 (MCF-7 cells [6]; [11]): 2.54 ± 0.18 µM
melting point: 170 to 171 °C
IC50 (HCT-116 cells; [12]): 1.83 ± 0.2 µM
IC50 (MGC-803 cells [8]; Homo sapiens, MGC-803, 48 h): 1.54 µM
IC50 (MGC-803 cells [8]): 1.52 ± 0.12 µM
Compound: COc1cc(/C=C/C(=O)c2ccc(NC(=O)CCCCl)cc2)cc(OC)c1OC [Compound 13e]
CDK1 protein level [1]: down-regulated
CyclinB1 protein level [1]: down-regulated
Concentration at which colonies were evidently reduced (MGC-803 cells [2]; MGC-803, 7 days treatment, compared to control): greater than 0.5 μmol/L
Colony formation of MGC-803 cells (MGC-803 cells [2]; result in words): inhibited the colony formation
Cell nucleus morphology (DAPI) (MGC-803 cells [3]): concentrated and fragmented
Dose from which cell growth is inhibited (MGC-803 cells [4]): ≥ 0.75 µmol/L
Bcl-2 expression [5]: down regulated
Caspase3/7 [5]: cleaved (activated)
Caspase8 [5]: cleaved (activated)
Caspase12 [5]: cleaved (activated)
DR5 expression [5]: up regulated
Noxa expression [5]: up regulated
PARP [5]: cleaved
XIAP expression [5]: decreased
c-IAP1 expression [5]: decreased
t-Bid [5]: increase
Rate of apoptosis cells (early and late) (MGC-803 cells [7]): 86.7%
Fold Selectivity A (GES-1 cells): 5.4 fold
IC50 (GES-1 cells): 8.22 µM
Concentration range of selective inhibitory effect on cancer cells (GES-1 cells; MGC-803 versus GES-1, 48 h): below 2 μmol/L
Inhibition activity on GES-1 compared with MGC-803 (GES-1 cells; cell viability, 48 h, Figure 4C): lower inhibition activity on GES-1 than gastric cancer cell MGC-803

IC50 (MCF-7 cells [6]; exposure for 48 h): 17.6 ± 0.51 µM
IC50 (HCT-116 cells; exposure for 48 h): 13.1 ± 0.61 µM
IC50 (MGC-803 cells [8]): 16.8 ± 0.82 µM
Compound: (E)-4-chloro-N-(4-(3-oxo-3-(p-tolyl)prop-1-en-1-yl)phenyl)butanamide [Compound 13i]

IC50 (MCF-7 cells [6]; [11]): 4.45 ± 0.11 µM
melting point: 125 to 126 °C
IC50 (HCT-116 cells; [12]): 4.28 ± 0.32 µM
IC50 (MGC-803 cells [8]; Homo sapiens, MGC-803, 48 h): 3.01 ± 0.11 µM
Compound: COc1cc(/C=C/C(=O)c2ccc(NC(=O)CCCCCl)cc2)cc(OC)c1OC [Compound 13f]

IC50 (MCF-7 cells [6]; [11]): 2.06 ± 0.21 µM
melting point: 178 to 179 °C
IC50 (HCT-116 cells; [12]): 1.12 ± 0.11 µM
IC50 (MGC-803 cells [8]; Homo sapiens, MGC-803, 48 h): 1.83 ± 0.2 µM
IC50 (MGC-803 cells [8]): 1.52 µM
Compound: C=CC(=O)Nc1ccc(/C=C/C(=O)c2cc(OC)c(OC)c(OC)c2)cc1 [Compound 13g, (E)-N-(4-(3-oxo-3-(3,4,5-trimethoxyphenyl)prop-1-en-1-yl)phenyl) acrylamide]
Fold Selectivity A (GES-1 cells): 5.4 fold
IC50 (GES-1 cells): 8.22 µM

IC50 (MCF-7 cells [6]; [11]): 2.12 ± 0.13 µM
melting point: 183 to 184 °C
IC50 (HCT-116 cells; [12]): 2.4 ± 0.26 µM
IC50 (MGC-803 cells [8]; Homo sapiens, MGC-803, 48 h): 1.64 ± 0.18 µM
Compound: COc1cc(/C=C/C(=O)c2ccc(NC(=O)CCCl)cc2)cc(OC)c1OC [Compound 13d]

IC50 (MCF-7 cells [6]; exposure for 48 h): > 40 µM
IC50 (HCT-116 cells; exposure for 48 h): > 40 µM
IC50 (MGC-803 cells [8]): > 40 µM
Compound: (E)-N-(4-(3-(4-bromophenyl)-3-oxoprop-1-en-1-yl) phenyl)-4-chlorobutanamide [Compound 13k]
